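Briefly, cells in 96-well plates were exposed to five compound concentrations for 48 h, and endpoints were estimated by linear interpolation. GI50 = concentration required for 50% inhibition of growth. TGI: concentration producing complete growth inhibition.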
What was measured:
Assay in all cases: NCI tumour cell line growth inhibition, 48 h
[1] = test system: SNB-75 CNS
[2] = test system: 786-0 renal
[3] = test system: A498 renal
[4] = test system: A549 NSCLC
[5] = test system: ACHN renal
[6] = test system: BT-549 breast
[7] = test system: CAKI-1 renal
[8] = test system: CCRF-CEM leukemia
[9] = test system: COLO 205 colon
[10] = test system: DU-145 prostate
[11] = test system: EKVX NSCLC
[12] = test system: HCC-2998 colon
[13] = test system: HCT-116 colon
[14] = test system: HCT-15 colon
[15] = test system: HL-60(TB) leukemia
[16] = test system: HOP-62 NSCLC
[17] = test system: HOP-92 NSCLC
[18] = test system: HS 578T breast
[19] = test system: HT29 colon
[20] = test system: IGROV1 ovarian
[21] = test system: K-562 leukemia
[22] = test system: KM12 colon
[23] = test system: LOX IMVI melanoma
[24] = test system: M14 melanoma
[25] = test system: MALME-3M melanoma
[26] = test system: MCF7 breast
[27] = test system: MDA-MB-231 breast
[28] = test system: MDA-MB-435
[29] = test system: MOLT-4 leukemia
[30] = test system: NCI-H226 lung
[31] = test system: NCI-H23 lung
[32] = test system: NCI-H460 lung
[33] = test system: NCI-H522 lung
[34] = test system: NCI/ADR-RES ovarian
[35] = test system: OVCAR-3 ovarian
[36] = test system: OVCAR-4 ovarian
[37] = test system: OVCAR-5 ovarian
[38] = test system: OVCAR-8 ovarian
[39] = test system: PC-3 prostate
[40] = test system: RPMI-8226 leukemia
[41] = test system: RXF 393 renal
[42] = test system: SF-268 CNS
[43] = test system: SF-295 CNS
[44] = test system: SF-539 CNS
[45] = test system: SK-MEL-2 melanoma
[46] = test system: SK-MEL-28 melanoma
[47] = test system: SK-MEL-5 melanoma
[48] = test system: SK-OV-3 ovarian
[49] = test system: SN12C renal
[50] = test system: SNB-19 CNS
[51] = test system: SR leukemia
[52] = test system: SW-620 colon
[53] = test system: TK-10 renal
[54] = test system: U251 CNS
[55] = test system: UACC-257 melanoma
[56] = test system: UACC-62 melanoma
[57] = test system: UO-31 renal

Structure (SMILES): NC(=O)c1ncn(CC2(CO)CCC2)n1
- GI50 [1]: 21.6 µM

Structure (SMILES): COc1ccc2[nH]c(C(=O)OCc3ccc4cccc(O)c4n3)cc2c1
- GI50 [2]: 1.68 µM
- TGI [2]: 3.31 µM
- GI50 [3]: 2.65 µM
- TGI [3]: 5.57 µM
- GI50 [4]: 1.81 µM
- TGI [4]: 3.92 µM
- GI50 [5]: 0.69 µM
- TGI [5]: 1.98 µM
- GI50 [6]: 1.69 µM
- TGI [6]: 3.74 µM
- GI50 [7]: 1.13 µM
- TGI [7]: 2.49 µM
- GI50 [8]: 0.148 µM
- TGI [8]: 1.11 µM
- GI50 [9]: 1.29 µM
- TGI [9]: 2.91 µM
- GI50 [10]: 1.53 µM
- TGI [10]: 2.93 µM
- GI50 [11]: 1.51 µM
- TGI [11]: 2.89 µM
- GI50 [12]: 1.43 µM
- TGI [12]: 2.92 µM
- GI50 [13]: 0.39 µM
- TGI [13]: 1.85 µM
- GI50 [14]: 0.757 µM
- TGI [14]: 3.18 µM
- GI50 [15]: 1.18 µM
- TGI [15]: 3.4 µM
- GI50 [16]: 1.52 µM
- TGI [16]: 3.5 µM
- GI50 [17]: 0.209 µM
- TGI [17]: 1.42 µM
- GI50 [18]: 1.78 µM
- TGI [18]: 4.6 µM
- GI50 [19]: 0.775 µM
- TGI [19]: 2.77 µM
- GI50 [20]: 0.751 µM
- TGI [20]: 2.08 µM
- GI50 [21]: 0.283 µM
- TGI [21]: 2.66 µM
- GI50 [22]: 1.94 µM
- TGI [22]: 3.9 µM
- GI50 [23]: 0.779 µM
- TGI [23]: 2.14 µM
- GI50 [24]: 0.564 µM
- TGI [24]: 2.04 µM
- GI50 [25]: 1.52 µM
- TGI [25]: 2.89 µM
- GI50 [26]: 0.723 µM
- TGI [26]: 2.79 µM
- GI50 [27]: 1.17 µM
- TGI [27]: 2.49 µM
- GI50 [28]: 1.52 µM
- TGI [28]: 3.13 µM
- GI50 [29]: 0.641 µM
- TGI [29]: 2.99 µM
- GI50 [30]: 1.4 µM
- TGI [30]: 3.14 µM
- GI50 [31]: 1.44 µM
- TGI [31]: 3.07 µM
- GI50 [32]: 2.24 µM
- TGI [32]: 5.41 µM
- GI50 [33]: 1.39 µM
- TGI [33]: 3.25 µM
- GI50 [34]: 1.94 µM
- TGI [34]: 5.91 µM
- GI50 [35]: 1.11 µM
- TGI [35]: 2.41 µM
- GI50 [36]: 1.83 µM
- TGI [36]: 3.55 µM
- GI50 [37]: 1.45 µM
- TGI [37]: 2.96 µM
- GI50 [38]: 1.38 µM
- TGI [38]: 4.04 µM
- GI50 [39]: 0.247 µM
- TGI [39]: 1.32 µM
- GI50 [40]: 0.288 µM
- TGI [40]: 0.874 µM
- GI50 [41]: 1.06 µM
- TGI [41]: 2.31 µM
- GI50 [42]: 1.65 µM
- TGI [42]: 3.13 µM
- GI50 [43]: 4.98 µM
- TGI [43]: 18.1 µM
- GI50 [44]: 1.27 µM
- TGI [44]: 2.53 µM
- GI50 [45]: 1.74 µM
- TGI [45]: 3.72 µM
- GI50 [46]: 1.61 µM
- TGI [46]: 3 µM
- GI50 [47]: 1.76 µM
- TGI [47]: 3.18 µM
- GI50 [48]: 11.1 µM
- TGI [48]: 23.2 µM
- GI50 [49]: 1.18 µM
- TGI [49]: 2.54 µM
- GI50 [50]: 2.83 µM
- TGI [50]: 11.2 µM
- GI50 [1]: 1.06 µM
- TGI [1]: 2.3 µM
- GI50 [51]: 0.251 µM
- TGI [51]: 1.25 µM
- GI50 [52]: 1.2 µM
- TGI [52]: 3.15 µM
- GI50 [53]: 1.81 µM
- TGI [53]: 3.27 µM
- GI50 [54]: 1.67 µM
- TGI [54]: 3.15 µM
- GI50 [55]: 2.02 µM
- TGI [55]: 5.68 µM
- GI50 [56]: 1.31 µM
- TGI [56]: 2.6 µM
- GI50 [57]: 0.551 µM
- TGI [57]: 1.99 µM
